{"source": "patent US11020414B2", "about": "“Antimicrobial compositions with cysteamine” (priority 2010, dated 2021)", "key": {"[1]": {"tested_on": "Burkholderia cepacia NCTC10743", "assay": "MIC100 and FIC of cysteamine and tobramycin, MH broth (CLSI) and artificial sputum medium", "assay_type": "cell-based", "description": "(§1) Both the bacterial inoculum and the antimicrobial agents, including the compounds structurally related to cysteamine, were added simultaneously to the plates. The plates were incubated at 37° C. for 24 h and the optical density was read at 625 nm on a microtitre plate reader (BioTek Powerwave XS, Winooski, USA). The MIC was obtained as the lowest concentration of antimicrobial showing total inhibition of bacterial growth.\n(§2) The FIC corresponds to an interaction coefficient indicating whether the combination of antimicrobial agents is synergistic, additive, antagonist or neutral. The FIC is determined by comparing the activity of an agent in combination (MIC of agent A+agent B) with the activity of the agent alone (MIC of agent A or agent B) as follow (Singh et al., 2000): FIC=MICA[combination]/MICA[alone]+MICB[combination]/MICB[alone]\n(§3) The complex pathophysiology of CF is characterized by airway obstruction caused by abnormal mucus secretion and infection, with 60-80% of patients being chronically infected with the biofilm-forming bacteria Pseudomonas aeruginosa (George et al., 2009). With a prevalence of up to 10% in adult CF patients, B. cepacia complex is a rare but major concern due to its high virulence, morbidity and transmissibility (O'Malley, 2009; Brüssow, 2012). We tested the antimicrobial activity of cysteamine-tobramycin combinations in artificial sputum medium (Yang, et al., 2011) against 4 P. aeruginosa (PAO1, ATCC27853, DSMZ1128 and DSMZ1299) and 2 B. cepacia complex strains (NCTC10743 and NCTC10744)."}, "[2]": {"tested_on": "Burkholderia cepacia NCTC10744", "assay": "MIC100 and FIC of cysteamine and tobramycin, MH broth (CLSI) and artificial sputum medium", "assay_type": "cell-based", "details": "read-out: MIC100, agent alone", "description": "as §1, §2, §3"}, "[3]": {"tested_on": "P. aeruginosa PAO1 biofilm", "assay": "Minimum biofilm eradication concentration against established biofilm (FIG. 4)", "assay_type": "cell-based, Pseudomonas aeruginosa"}, "[4]": {"tested_on": "4 P. aeruginosa (PAO1, ATCC27853, DSMZ1128 and DSMZ1299) and 2 B. cepacia complex strains (NCTC10743 and NCTC10744)", "assay": "microbe, parasite or virus in culture", "assay_type": "cell-based, Pseudomonas aeruginosa; Burkholderia cepacia complex", "details": "all strains", "text": "as §3"}, "[5]": {"tested_on": "P. aeruginosa PAO1 planktonic cells", "assay": "MIC in physiologically-relevant ionic concentrations (FIG. 7)", "assay_type": "cell-based, Pseudomonas aeruginosa", "details": "in the presence of Ca2+ and in the presence of DNA", "description": "Bacterial growth was followed over a 24 h period and absorbance read using a BioTek microtitre plate reader at 625 nm. Total bacterial growth inhibition was retained in the presence of NaCl, CaCl2 or DNA and at two-fold the normal MIC100 in the presence of mucin. Tobramycin activity was inhibited in the presence of the divalent cation ca^2+ and in the presence of the anionic polymer DNA. […] A similar method as described above (1.4) was used for the determination of the antimicrobial activity of cysteamine (Lynovex®) in the presence of high ionic concentrations. […] Bacterial growth was followed over a 24 h period and absorbance read using a BioTek microtitre plate reader at 625 nm."}, "P. aeruginosa ATCC 27853": {"tested_on": "P. aeruginosa ATCC 27853", "assay": "MIC and FIC of antibiotics with cysteamine, environments mimicking a CF lung", "assay_type": "cell-based, Pseudomonas aeruginosa", "details": "for MIC upon administration with cysteamine compared to administration alone: environments mimicking those found in a CF lung; for antimicrobial effect in combination with cysteamine: mucolytic environment", "description": "as §1, §2\nThe range of concentrations of antimicrobial agents was 0-10 μg/ml."}, "[6]": {"tested_on": "Pseudomonas aeruginosa Pa01", "assay": "MIC determination, strain Pa01", "assay_type": "cell-based", "description": "(§4) The bacterial inoculum was established by the dilution method from actively-growing cultures in Mueller-Hinton (MH) broth, standardized with 0.5 McFarland turbidity standard as described in the CLSI method M26-A.\nas §1, with “The MIC was obtained as the lowest concentration of antimicrobial showing total inhibition of bacterial growth.” left out\n(§5) A number of compounds related in chemical structure to cysteamine were examined for antimicrobial activity; cystamine (dihydrochloride salt), taurine and 2,3-dimercaptosuccinic acid. Other compounds chemically related to cysteamine are known, but are toxic, and are therefore of no utility in a drug of this nature."}, "[7]": {"tested_on": "Pseudomonas aeruginosa Pa14", "assay": "MIC determination, strain Pa14", "assay_type": "cell-based", "description": "as §4\nas §1, with “The MIC was obtained as the lowest concentration of antimicrobial showing total inhibition of bacterial growth.” left out\nas §5"}, "[8]": {"tested_on": "Pseudomonas aeruginosa Pa058", "assay": "MIC determination, strain Pa058", "assay_type": "cell-based", "description": "as §4\nas §1, with “The MIC was obtained as the lowest concentration of antimicrobial showing total inhibition of bacterial growth.” left out\nas §5"}, "[9]": {"tested_on": "Pseudomonas aeruginosa NH57388A", "assay": "MIC determination, strain NH57388A", "assay_type": "cell-based", "description": "as §4\nas §1, with “The MIC was obtained as the lowest concentration of antimicrobial showing total inhibition of bacterial growth.” left out\nas §5"}, "[10]": {"tested_on": "Pseudomonas aeruginosa Pa01", "assay": "FIC index of combinations with conventional antibiotics, strain Pa01", "assay_type": "cell-based", "details": "strain Pa01 (Col^R)", "description": "as §4, §1, §2\n(§6) Additive combinations of two antimicrobial agents are indicated by a FIC index of 1, whereas a FIC index<1 indicates synergistic combinations. Neutral combinations would give a FIC between 1 and 4, a FIC index higher than 4 indicates antagonist effects between the two antimicrobial agents.\n(§7) The FIC was also calculated to assess the interaction of two antimicrobial agents in combination against bacterial samples."}, "[11]": {"tested_on": "Pseudomonas aeruginosa Pa14", "assay": "FIC index of combinations with conventional antibiotics, strain Pa14", "assay_type": "cell-based", "details": "strain Pa14 (Col^R)", "description": "as §4, §1, §2, §6, §7"}, "[12]": {"tested_on": "Pseudomonas aeruginosa Pa058", "assay": "FIC index of combinations with conventional antibiotics, strain Pa058", "assay_type": "cell-based", "details": "strain Pa058 (Col^R, Cip^R Tob^R)", "description": "as §4, §1, §2, §6, §7"}, "[13]": {"tested_on": "Pseudomonas aeruginosa Pa57388A", "assay": "FIC index of combinations with conventional antibiotics, strain Pa57388A", "assay_type": "cell-based", "details": "strain Pa57388A (Col^R)", "description": "as §4, §1, §2, §6, §7"}, "[14]": {"tested_on": "Pseudomonas aeruginosa Pa57388D", "assay": "FIC index of combinations with conventional antibiotics, strain Pa57388D", "assay_type": "cell-based", "details": "strain Pa57388D (Col^R, Gent^R)", "description": "as §4, §1, §2, §6, §7"}, "[15]": {"details": "in combination with Ciprofloxacin"}}, "note": "Several values for one entry are separate records, joined by “and”; a condition that tells them apart may be missing. Equal entries are not always repeated. Where two headings read alike, the source gives them in different places.", "data": [{"compound": "NC[C@H]1O[C@H](O[C@H]2[C@H](O)[C@@H](O[C@H]3O[C@H](CO)[C@@H](O)[C@H](N)[C@H]3O)[C@H](N)C[C@@H]2N)[C@H](N)C[C@@H]1O", "note": "[Tobramycin, reference compound]", "values": [{"measurement": "MIC", "setting": "[1]; NCTC10743, B. cepacia NCTC10743, FIG. 6, read-out: MIC100, agent alone", "value": "> 16", "unit": "µg/mL"}, {"measurement": "MIC", "setting": "[1]; NCTC10743, B. cepacia NCTC10743, in both media (MH broth and ASM), FIG. 11, read-out: MIC100, agent alone", "value": "> 16", "unit": "µg/mL"}, {"measurement": "MIC", "setting": "[1]; NCTC10743, B. cepacia NH10743, ASM (Artificial Sputum Medium), read-out: MIC100, agent alone", "value": "> 16", "unit": "µg/mL"}, {"measurement": "MIC", "setting": "[1]; NCTC10743, B. cepacia NH10743, CLSI, read-out: MIC100, agent alone", "value": "> 16", "unit": "µg/mL"}, {"measurement": "MIC", "setting": "[2]; NCTC10744, B. cepacia NH10744, ASM (Artificial Sputum Medium)", "value": "> 16", "unit": "µg/mL"}, {"measurement": "MIC", "setting": "[2]; NCTC10744, B. cepacia NH10744, CLSI", "value": "> 16", "unit": "µg/mL"}, {"measurement": "minimum biofilm eradication concentration (MBEC), agent alone", "setting": "[3]", "value": 4, "unit": "µg/mL"}, {"measurement": "tobramycin activity in the presence of cysteamine", "setting": "[4]", "value": "enhanced"}, {"measurement": "Tobramycin activity", "setting": "[5]", "value": "inhibited"}, {"measurement": "MIC upon administration with cysteamine compared to administration alone", "setting": "P. aeruginosa ATCC 27853", "value": "greatly reduced"}, {"measurement": "antimicrobial effect in combination with cysteamine", "setting": "P. aeruginosa ATCC 27853", "value": "maintained"}]}, {"compound": "O=C(O)C(S)C(S)C(=O)O", "note": "(stereo not shown) [2,3-Dimercaptosuccinic Acid, 2,3-dimercaptosuccinic acid]", "values": [{"measurement": "MIC50", "setting": "[6]", "value": "1000 to 2000", "unit": "µg/mL"}, {"measurement": "MIC90", "setting": "[6]", "value": "> 2000", "unit": "µg/mL"}, {"measurement": "MIC", "setting": "[6]; read-out: MIC100", "value": "> 2000", "unit": "µg/mL"}, {"measurement": "MIC50", "setting": "[7]", "value": "1000 to 2000", "unit": "µg/mL"}, {"measurement": "MIC90", "setting": "[7]", "value": "1000 to 2000", "unit": "µg/mL"}, {"measurement": "MIC", "setting": "[7]; read-out: MIC100", "value": "> 2000", "unit": "µg/mL"}, {"measurement": "MIC50", "setting": "[8]", "value": "500 to 2000", "unit": "µg/mL"}, {"measurement": "MIC90", "setting": "[8]", "value": "1000 to 2000", "unit": "µg/mL"}, {"measurement": "MIC", "setting": "[8]; read-out: MIC100", "value": 2000, "unit": "µg/mL"}, {"measurement": "MIC50", "setting": "[9]", "value": "500 to 2000", "unit": "µg/mL"}, {"measurement": "MIC90", "setting": "[9]", "value": "1000 to 2000", "unit": "µg/mL"}, {"measurement": "MIC", "setting": "[9]; read-out: MIC100", "value": 2000, "unit": "µg/mL"}]}, {"compound": "CC(=O)N[C@@H](CS)C(=O)O", "note": "[N-Acetyl Cysteine (NAC), N-Acetyl cysteine, reference compound]", "values": [{"measurement": "FICI (Additive) Cip", "setting": "[10]; [15]", "value": "0.56 and 0.75"}, {"measurement": "FICI (Additive) Tob", "setting": "[10]; in combination with Tobramycin", "value": "0.53 and 0.52 and 0.5 and 0.56"}, {"measurement": "FICI (Additive) Cip", "setting": "[11]; [15]", "value": "0.56 and 0.75"}, {"measurement": "FICI (Additive) Col", "setting": "[11]; in combination with Colistin", "value": "0.5 and 0.75"}, {"measurement": "FICI (Additive) Gent", "setting": "[11]; in combination with Gentamicin", "value": "0.51 and 0.52"}, {"measurement": "FICI (Additive) Tob", "setting": "[11]; in combination with Tobramycin", "value": "0.63 and 0.5 and 0.75"}, {"measurement": "FICI (Additive) Cip", "setting": "[12]; [15]", "value": "0.56 and 0.75"}, {"measurement": "FICI (Additive) Col", "setting": "[12]; in combination with Colistin", "value": 0.53}, {"measurement": "FICI (Additive) Gent", "setting": "[12]; in combination with Gentamicin", "value": 0.53}, {"measurement": "FICI (Additive) Tob", "setting": "[12]; in combination with Tobramycin", "value": "0.75 and 0.53 and 0.51"}, {"measurement": "FICI (Additive) Cip", "setting": "[13]; [15]", "value": "0.63 and 0.5 and 0.56"}, {"measurement": "FICI (Additive) Col", "setting": "[13]; in combination with Colistin", "value": "0.56 and 0.75 and 0.52"}, {"measurement": "FICI (Additive) Gent", "setting": "[13]; in combination with Gentamicin", "value": 0.63}, {"measurement": "FICI (Additive) Tob", "setting": "[13]; in combination with Tobramycin", "value": 0.53}, {"measurement": "FICI (Additive) Cip", "setting": "[14]; [15]", "value": "0.53 and 0.75"}, {"measurement": "FICI (Additive) Col", "setting": "[14]; in combination with Colistin", "value": "0.56 and 0.75 and 0.53 and 0.5 and 0.51"}, {"measurement": "FICI (Additive) Tob", "setting": "[14]; in combination with Tobramycin", "value": "0.56 and 0.63"}, {"measurement": "FICI (Synergy) Tob", "setting": "[14]; in combination with Tobramycin", "value": "0.25 and 0.31"}]}, {"compound": "O=C(O)c1cn(C2CC2)c2cc(N3CCNCC3)c(F)cc2c1=O", "note": "[Ciprofloxacin]", "values": [{"measurement": "MIC upon administration with cysteamine compared to administration alone", "setting": "P. aeruginosa ATCC 27853", "value": "greatly reduced"}, {"measurement": "antimicrobial effect in combination with cysteamine", "setting": "P. aeruginosa ATCC 27853", "value": "maintained"}]}]}
